Experimental data reported in patent US20150164762A1, “USE OF ETHANOLAMINE PHOSPHATE” (priority 2012, published 2015).

Test system: BEAS-2B
Experiment: Comprehensive gene expression analysis with Whole Human Genome DNA microarray after EP treatment
Format: cell-based
Experimental: Cells of the established normal human airway epithelial cell line BEAS-2B were used in the experiment. These cells were expansively cultured in 10% FBS RPMI-1640, and seeded at a density of 1×10^5/cm^2 on a 24-well plate. After 24 hours 0.1% FBS RPMI-1640 was substituted, and EP was administered to a final concentration of 0 or 1 mM (n=4). After 24 hours, the cells were used as the DNA microarray samples. RNA was extracted using a QIAGEN RNeasy Mini Kit. The DNA microarray test was performed using a Whole Human Genome DNA microarray 4×44K (Agilent), and the necessary labeling reagents and the like for the DNA microarray test were all from Agilent. The DNA microarray test data were analyzed statistically with GeneSpring (Agilent) dedicated analysis software, and gene function analysis (Gene Ontology (GO) analysis) was performed based on differential expression. The purpose of the GO analysis is to determine stochastically the degree to which gene sets with statistically significant differential expression correspond to known functional classification gene sets. […] The p-value is calculated according to the following formula.

[1] = probe A_24_P215804, 1 mM EP, 24 h
[2] = probe A_24_P218265, 1 mM EP, 24 h
[3] = probe A_24_P226782, 1 mM EP, 24 h
[4] = probe A_24_P231104, 1 mM EP, 24 h
[5] = probe A_24_P261169, 1 mM EP, 24 h
[6] = probe A_24_P273157, 1 mM EP, 24 h
[7] = probe A_24_P295543, 1 mM EP, 24 h
[8] = probe A_24_P302833, 1 mM EP, 24 h
[9] = probe A_24_P307580, NM_001098523, EP vs control
[10] = probe A_24_P313354, 1 mM EP, 24 h
[11] = probe A_24_P313504, 1 mM EP, 24 h
[12] = probe A_24_P317708, NM_138969, EP vs control
[13] = probe A_24_P319113, 1 mM EP, 24 h
[14] = probe A_24_P319983, 1 mM EP, 24 h
[15] = probe A_24_P388659, 1 mM EP, 24 h
[16] = probe A_24_P389409, NM_006129, EP vs control
[17] = probe A_24_P389457, 1 mM EP, 24 h
[18] = probe A_24_P413470, 1 mM EP, 24 h
[19] = probe A_24_P722216, NM_018706, EP vs control
[20] = probe A_24_P839629, 1 mM EP, 24 h
[21] = probe A_24_P876522, NM_001008397, EP vs control
[22] = probe A_24_P914519, S67289, EP vs control
[23] = probe A_24_P928052, 1 mM EP, 24 h
[24] = probe A_24_P934477, AJ000096, EP vs control
[25] = probe A_24_P935986, 1 mM EP, 24 h
[26] = probe A_24_P937256, 1 mM EP, 24 h
[27] = probe A_24_P937317, NM_001014336, EP vs control
[28] = probe A_24_P3305312, 1 mM EP, 24 h
[29] = probe A_24_P9284523, 1 mM EP, 24 h
[30] = probe A_32_P45009, NM_005896, EP vs control
[31] = probe A_32_P75094, 1 mM EP, 24 h
[32] = probe A_32_P89691, NM_003104, EP vs control
[33] = probe A_32_P94798, 1 mM EP, 24 h
[34] = probe A_32_P171043, 1 mM EP, 24 h
[35] = probe A_32_P230808, 1 mM EP, 24 h

## NCCOP(=O)(O)O [EP, Ethanolamine phosphate]
[1]
  CKLF expression R*: Ratio to control: 1.551 times
  CKLF expression log2 [ratio]: 0.633
[2]
  TNFRSF10B expression R*: Ratio to control: 0.475 times
  TNFRSF10B expression log2 [ratio]: −1.073
[3]
  SOX7 expression R: Ratio to control: 0.607 times
  SOX7 expression log2 [ratio]: −0.720
[4]
  LEPR expression R*: Ratio to control: 1.659 times
  LEPR expression log2 [ratio]: 0.730
[5]
  SEMA4D expression R: Ratio to control: 0.558 times
  SEMA4D expression log2 [ratio]: −0.842
[6]
  OBSCN expression R: Ratio to control: 0.654 times
  OBSCN expression log2 [ratio]: −0.613
[7]
  BLOC1S2 expression R*: Ratio to control: 0.384 times
  BLOC1S2 expression log2 [ratio]: −1.381
[8]
  APPL1 expression R*: Ratio to control: 1.723 times
  APPL1 expression log2 [ratio]: 0.785
[9]
  HTATIP2 gene expression, R* ratio to control: 1.821 times
  HTATIP2 gene expression, log2 [ratio]: 0.865
[10]
  NR2F2 expression R*: Ratio to control: 1.746 times
  NR2F2 expression log2 [ratio]: 0.804
[11]
  PLK1 expression R*: Ratio to control: 1.939 times
  PLK1 expression log2 [ratio]: 0.955
[12]
  SDR16C5 gene expression, R* ratio to control: 2.349 times
  SDR16C5 gene expression, log2 [ratio]: 1.232
[13]
  P2RX7 expression R: Ratio to control: 0.586 times
  P2RX7 expression log2 [ratio]: −0.772
[14]
  BCL10 expression R*: Ratio to control: 0.571 times
  BCL10 expression log2 [ratio]: −0.310
[15]
  ARHGAP24 expression R*: Ratio to control: 1.745 times
  ARHGAP24 expression log2 [ratio]: 0.803
[16]
  BMP1 gene expression, R* ratio to control: 0.650 times
  BMP1 gene expression, log2 [ratio]: −0.622
[17]
  CDKN1A expression R*: Ratio to control: 0.294 times
  CDKN1A expression log2 [ratio]: −1.768
[18]
  TP73 expression R*: Ratio to control: 0.482 times
  TP73 expression log2 [ratio]: −1.054
[19]
  DHTKD1 gene expression, R* ratio to control: 1.429 times
  DHTKD1 gene expression, log2 [ratio]: 0.515
[20]
  ZMAT3 expression R*: Ratio to control: 0.654 times
  ZMAT3 expression log2 [ratio]: −0.612
[21]
  GPX8 gene expression, R* ratio to control: 1.602 times
  GPX8 gene expression, log2 [ratio]: 0.680
[22]
  CYBB gene expression, R* ratio to control: 1.958 times
  CYBB gene expression, log2 [ratio]: 0.968
[23]
  NRP1 expression R*: Ratio to control: 1.990 times
  NRP1 expression log2 [ratio]: 0.993
[24]
  CBR3 gene expression, R* ratio to control: 2.429 times
  CBR3 gene expression, log2 [ratio]: 1.281
[25]
  BCAT1 expression R*: Ratio to control: 1.721 times
  BCAT1 expression log2 [ratio]: 0.783
[26]
  RELA expression R*: Ratio to control: 1.611 times
  RELA expression log2 [ratio]: 0.688
[27]
  IL31 gene expression, R* ratio to control: 0.296 times
  IL31 gene expression, log2 [ratio]: −1.758
[28]
  BBC3 expression R*: Ratio to control: 0.366 times
  BBC3 expression log2 [ratio]: −1.452
[29]
  MAP3K10 expression R*: Ratio to control: 0.570 times
  MAP3K10 expression log2 [ratio]: −0.810
[30]
  IDH1 gene expression, R* ratio to control: 1.486 times
  IDH1 gene expression, log2 [ratio]: 0.571
[31]
  A1FM2 expression R*: Ratio to control: 0.399 times
  A1FM2 expression log2 [ratio]: −1.327
[32]
  SORD gene expression, R* ratio to control: 1.506 times
  SORD gene expression, log2 [ratio]: 0.590
[33]
  ANXA2 expression R*: Ratio to control: 1.614 times
  ANXA2 expression log2 [ratio]: 0.691
[34]
  CCBE1 expression R*: Ratio to control: 1.890 times
  CCBE1 expression log2 [ratio]: 0.918
[35]
  KNG1 expression R*: Ratio to control: 0.358 times
  KNG1 expression log2 [ratio]: −1.484
Probe A—23_P63896, 1 mM EP, 24 h
  FAS expression: 0.36 fold
Probe A—23_P105138, 1 mM EP, 24 h
  catalase (CAT) expression: increased expression
Probe A—23_P206661, 1 mM EP, 24 h
  NADPH:quinone reductase-1 (NQ01) expression: increased expression
Probe A—24_P175519, 1 mM EP, 24 h
  thioredoxin (TXN) expression increase: 1.4 times
